Results as given in patent US10583140B2, “Ingenol analogs, pharmaceutical compositions and methods of use thereof” (GlaxoSmithKline Intellectual Property Development Limited, priority 2016, dated 2020).

System: HIV-infected Jurkat cell clones (C16, I15 and N6)
Experiment: Jurkat HIV Latency assay (HIV activation, luciferase)
Format: cell-based
Conditions: Homo sapiens, HIV activation by HIV expressed luciferase (Steady-Glo), cells incubated with compound 24 hours at 37° C.
Description: For the Jurkat HIV Latency assay, compounds are dissolved and titrated in DMSO and diluted 100-fold in assay medium (RPMI-1640 containing 10% fetal bovine serum) containing an equal mixture of three HIV-infected Jurkat cell clones (C16, I15 and N6) at a total concentration of 1-2×10e^5 cells/mL. To test stability, compounds are pre-incubated in an assay medium for 48 hours at 37° C. prior to adding cells (48 hr EC50). Compounds that induce HIV expression result in a dose-dependent production of the HIV expressed luciferase enzyme. After the incubation of cells with compound for 24 hours at 37° C., HIV activation and cytotoxicity are determined by measuring luminescence after the addition of Promega Steady-Glo® Luciferase Assay reagent or CellTiter-Glo® Luminescent Cell Viability Assay reagent, respectively.

SMILES: CC(=O)OCC1=C[C@@H]2C(=O)[C@]3(C=C(C)[C@H](OC(=O)N(C)c4ccc(Cl)cc4)[C@@]3(O)[C@@H]1O)[C@H](C)C[C@@H]1[C@H]2C1(C)C [Example 1, ((1aR,2S,5R,5aS,6S,8aS,9R,10aR)-6-(((4-chlorophenyl) (methyl)carbamoyl)oxy)-5,5a-dihydroxy-1,1,7,9-tetramethyl-11-oxo-1a,2,5,5a,6,9,10,10a-octahydro-1H-2,8a-methanocyclopenta[a]cyclopropa[e][10]annulen-4-yl)methyl acetate]
- EC50: 7 nM

SMILES: CC1=C[C@]23C(=O)[C@@H](C=C(COC(=O)c4ccccc4)[C@@H](O)[C@]2(O)[C@H]1OC(=O)N(C)c1ccc(Cl)cc1)[C@H]1[C@@H](C[C@H]3C)C1(C)C [Example 2, ((1aR,2S,5R,5aS,6S,8aS,9R,10aR)-6-(((4-chlorophenyl) (methyl)carbamoyl)oxy)-5,5a-dihydroxy-1,1,7,9-tetramethyl-11-oxo-1a,2,5,5a,6,9,10,10a-octahydro-1H-2,8a-methanocyclopenta [a]cyclopropa[e][10]annulen-4-yl)methyl benzoate]
- EC50: 22 nM

SMILES: CC1=C[C@]23C(=O)[C@@H](C=C(CN4C(=O)c5ccccc5C4=O)[C@@H](O)[C@]2(O)[C@H]1OC(=O)N(C)c1ccc(Cl)cc1)[C@H]1[C@@H](C[C@H]3C)C1(C)C [Example 3, (1aR,2S,5R,5aS,6S,8aS,9R,10aR)-4-((1,3-dioxoisoindolin-2-yl)methyl)-5,5a-dihydroxy-1,1,7,9-tetramethyl-11-oxo-1a,2,5,5a,6,9,10,10a-octahydro-1H-2,8a-methanocyclopenta[a]cyclopropa[e][10]annulen-6-yl (4-chlorophenyl) (methyl)carbamate]
- EC50: 1110 nM

SMILES: CC1=C[C@]23C(=O)[C@@H](C=C(CO)[C@@H](O)[C@]2(O)C1=O)[C@H]1[C@@H](C[C@H]3C)C1(C)C [Example 4, (1aR,2S,5R,5aS,8aS,9R,10aR)-5,5a-dihydroxy-4-(hydroxymethyl)-1,1,7,9-tetramethyl-1a,2,5,5a,10,10a-hexahydro-1H-2,8a-methanocyclopenta[a]cyclopropa[e][10]annulene-6,11 (9H)-dione]
- EC50: 4940 nM

SMILES: CC1=C[C@]23C(=O)[C@@H](C=C(COC(=O)N(C)c4ccc(Cl)cc4)[C@@H](O)[C@]2(O)[C@H]1O)[C@H]1[C@@H](C[C@H]3C)C1(C)C [Example 5, ((1aR,2S,5R,5aR,6S,8aS,9R,10aR)-5,5a,6-trihydroxy-1,1,7,9-tetramethyl-11-oxo-1a,2,5,5a,6,9,10,10a-octahydro-1H-2,8a-methanocyclopenta[a]cyclopropa[e][10]annulen-4-yl)methyl (4-chlorophenyl)(methyl)carbamate]
- EC50: 616 nM

SMILES: CC1=C[C@]23C(=O)[C@@H](C=C(COC(=O)Nc4ccccc4)[C@@H](O)[C@]2(O)[C@H]1O)[C@H]1[C@@H](C[C@H]3C)C1(C)C [Example 6, ((1aR,2S,5R,5aR,6S,8aS,9R,10aR)-5,5a,6-trihydroxy-1,1,7,9-tetramethyl-11-oxo-1a,2,5,5a,6,9,10,10a-octahydro-1H-2,8a-methanocyclopenta[a]cyclopropa[e][10]annulen-4-yl)methyl phenylcarbamate]
- EC50: 3680 nM

SMILES: CCCCNC(=O)OCC1=C[C@@H]2C(=O)[C@]3(C=C(C)[C@H](O)[C@@]3(O)[C@@H]1O)[C@H](C)C[C@@H]1[C@H]2C1(C)C [Example 7, ((1aR,2S,5R,5aR,6S,8aS,9R,10aR)-5,5a,6-trihydroxy-1,1,7,9-tetramethyl-11-oxo-1a,2,5,5a,6,9,10,10a-octahydro-1H-2,8a-methanocyclopenta[a]cyclopropa[e][10]annulen-4-yl)methyl butylcarbamate]
- EC50: 1050 nM

SMILES: CC1=C[C@]23C(=O)[C@@H](C=C(COC(=O)NCc4ccccc4)[C@@H](O)[C@]2(O)[C@H]1O)[C@H]1[C@@H](C[C@H]3C)C1(C)C [Example 8, ((1aR,2S,5R,5aR,6S,8aS,9R,10aR)-5,5a,6-trihydroxy-1,1,7,9-tetramethyl-11-oxo-1a,2,5,5a,6,9,10,10a-octahydro-1H-2,8a-methanocyclopenta[a]cyclopropa[e][10]annulen-4-yl)methyl benzylcarbamate]
- EC50: 4330 nM

SMILES: CC1=C[C@]23C(=O)[C@@H](C=C(COC(=O)N(C)C4CCCCC4)[C@@H](O)[C@]2(O)[C@H]1O)[C@H]1[C@@H](C[C@H]3C)C1(C)C [Example 9, ((1aR,2S,5R,5aR,6S,8aS,9R,10aR)-5,5a,6-trihydroxy-1,1,7,9-tetramethyl-11-oxo-1a,2,5,5a,6,9,10,10a-octahydro-1H-2,8a-methanocyclopenta[a]cyclopropa[e][10]annulen-4-yl)methyl cyclohexyl(methyl)carbamate]
- EC50: 50000 nM

SMILES: CC1=C[C@]23C(=O)[C@@H](C=C(COC(=O)N4CCc5ccccc54)[C@@H](O)[C@]2(O)[C@H]1O)[C@H]1[C@@H](C[C@H]3C)C1(C)C [Example 10, ((1aR,2S,5R,5aR,6S,8aS,9R,10aR)-5,5a,6-trihydroxy-1,1,7,9-tetramethyl-11-oxo-1a,2,5,5a,6,9,10,10a-octahydro-1H-2,8a-methanocyclopenta[a]cyclopropa[e][10]annulen-4-yl)methyl indoline-1-carboxylate]
- EC50: 278 nM

SMILES: CC1=C[C@]23C(=O)[C@@H](C=C(COC(=O)N4CCc5ccccc54)[C@@H](O)[C@]2(O)[C@H]1OC(=O)N1CCc2ccccc21)[C@H]1[C@@H](C[C@H]3C)C1(C)C [Example 11, (1aR,2S,5R,5aS,6S,8aS,9R,10aR)-5,5a-dihydroxy-4-(((indoline-1-carbonyl)oxy)methyl)-1,1,7,9-tetramethyl-11-oxo-1a,2,5,5a,6,9,10,10a-octahydro-1H-2,8a-methanocyclopenta[a]cyclopropa[e][10]annulen-6-yl indoline-1-carboxylate]
- EC50: 3500 nM

SMILES: CC1=C[C@]23C(=O)[C@@H](C=C(COc4ncc(C(F)(F)F)cn4)[C@@H](O)[C@]2(O)[C@H]1O)[C@H]1[C@@H](C[C@H]3C)C1(C)C [Example 12, (1aR,2S,5R,5aR,6S,8aS,9R,10aR)-5,5a,6-trihydroxy-1,1,7,9-tetramethyl-4-(((5-(trifluoromethyl)pyrimidin-2-yl)oxy)methyl)-1a,2,5,5a,6,9,10,10a-octahydro-1H-2,8a-methanocyclopenta[a]cyclopropa[e][10]annulen-11-one]
- EC50: 5170 nM
